Test results as given in ChEMBL document CHEMBL1155707, “New lipopeptides from the Caribbean cyanobacterium Lyngbya majuscula” (J Nat Prod, 2001).

Tests used:
Format in all cases: functional, cell-based
P388 = test: Cytotoxicity against mouse P388 cells
A549 = test: Cytotoxicity against human A549 cells
HT-29 = test: Cytotoxicity against human HT-29 cells
SK-MEL-28 = test: Cytotoxicity against human SK-MEL-28 cells

Measured: IC50

C[C@@H](c1nccs1)N(C)C(=O)[C@H](C[C@H](C)C(Cl)(Cl)Cl)NC(=O)C[C@H](C)C(Cl)(Cl)Cl [PSEUDODYSIDENIN]
> 1 mg/L: all assays above
